The source of these data is patent US20220273659A1, “HETEROCYCLIC COMPOUNDS AS KINASE INHIBITORS” (NUVATION BIO INC., priority 2019, published 2022).

pIC50: −log10 of the molar value. Where two headings read alike, the source gives them in different places.

Experiment [1] concerns DU4475 breast carcinoma cells. In words: Cancer cell proliferation assay, single agent (cell viability). The class given is cell-based. The following applies: Homo sapiens, DU-4475; Table 4; Rb negative; treatment 144 Hr with medium change at 72 Hr; Cell Titer-Glo or resazurin. Put shortly: (§1)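 Cells seeded day 1, then exposed on day 2 to 7–9 compound concentrations (e.g. 1.1 nM–10 μM); BT-549 for 24 h, MCF-7 and DU4475 for 144 h with medium change at 72 h. Viability by CellTiter-Glo or resazurin; IC50 from variable-slope sigmoidal fit.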
Background: In ATP-based viability assays light output follows the ATP content of the culture.

In experiment [2] the test system is MCF-7 breast adenocarcinoma cells. Described as above. The class given is cell-based. The conditions noted are these: Homo sapiens. Put shortly: as §1
Another experiment addresses T1, CDK9 (cyclin K) (Homo sapiens, UniProt P50750).
T1 construct: purchased Invitrogen Life Technologies (assay service)
The experiment can be described thus: LanthaScreen Eu Kinase Binding Assay. The method, then: 0.16 μL of 100×test compound in 100% DMSO (at specific solutions) were mixed with 3.84 μL of Kinase Buffer (50 mM HEPES pH 7.5, 0.01% BRIJ-35, 10 mM MgCl2, 1 mM EGTA), 8.0 μL of 2× Kinase (5 nM)/Antibody (Eu-anti-His, 2 nM) Mixture and 4.0 μL of 4×Tracer (Tracer 236, 100 nM). The plates were shaken for 30 seconds, and incubated for 60 minutes at room temperature. The plates were read on fluorescence plate reader with Dual emission at 615 nm and 665 nm.
The following equations were used for LanthaScreen Eu Kinase Binding Assay Data Analysis. Percent inhibition (100-% activity) was fitted to the “four-parameter logistic model” in XLfit for determination of IC50 values.
A general note: TR-FRET usually uses a lanthanide donor and a delayed reading to cut background.

Another experiment deals with T2, CDK2 (cyclin A) (Homo sapiens, UniProt P24941).
T2 construct: purchased Invitrogen Life Technologies (assay service)
In words: Z'-LYTE kinase assay. The class given is biochemical. In a few lines:
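FRET-based Z′-LYTE read-out using 1.22–10.3 ng CDK2/cyclin A with Ser/Thr 12 peptide (2 μM in the 2× mix) and ATP (31 μM as the 4× solution), in HEPES pH 7.5, MgCl2, EGTA and BRIJ-35, for 60 min at room temperature. After 1 h of development, the 445/520 nm emission was read, and percent inhibition was fitted to a four-parameter logistic curve for IC50.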

For another experiment, the target named is T3, CDK4 (Homo sapiens, UniProt P11802).
T3 construct: purchased Invitrogen PR8064A
In words: In vitro kinase inhibition IC50, luminescence (ADP Glo), retinoblastoma substrate. It counts as biochemical. The following applies: read-out: CDK4/D1 IC50. In a few lines:
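CDK4 enzyme (5 nM, Invitrogen) was combined with test compound and a mix of retinoblastoma substrate (1 μM) plus ATP (25 μM) in kinase buffer, 30 μL/well in 96-well half area white plates. After 2H at room temperature, ADP Glo reagent stopped the reaction for 45 min, then detection reagent was added and luminescence was read.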
For orientation: ADP-Glo turns the ADP formed in a reaction into a luminescent signal.

The next experiment addresses T4, CDK6 (Homo sapiens, UniProt Q00534).
T4 construct: purchased Invitrogen PR8422B
The description is as above. The class given is biochemical. The conditions noted are these: read-out: CDK6/D1 IC50. Put shortly: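 Recombinant CDK6 (5 nM) with retinoblastoma substrate (1 μM) and 25 μM ATP, compound at final 0.1–200 nM, incubated 2 h at room temperature. ADP formed detected by ADP-Glo luminescence. IC50 from four-parameter logistic fit of percent inhibition.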

Another experiment addresses T5, CDK1 (cyclin B) (Homo sapiens, UniProt P06493).
T5 construct: purchased Invitrogen Life Technologies (assay service)
In words: Z'-LYTE kinase assay. The class given is biochemical. The procedure: The plates were shaken for 30 seconds, and incubated for 60 minutes at room temperature. […] The plates were read on fluorescence plate reader with Dual emission at 445 nm and 520 nm.
The following equations were used for Z′-LYTE™ Screening Assay Data Analysis.

A further experiment has as its target T6, PI3Kδ kinase (Homo sapiens, UniProt O00329).
T6 construct: purchased Reaction Biology Corporation (assay service)
In words: PI3Kδ kinase assay (ADP-Glo, Reaction Biology). It counts as biochemical. In a few lines:
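Kinase in Tris-HCl 40 mM pH 7.5, MgCl2 20 mM, orthovanadate 3 mM, DTT 2 mM, 0.05% CHAPS, 1% DMSO, preincubated 10 min at room temperature with compound (about 0.5 nM–100 μM). ATP started a 30-min reaction at 30 °C. ADP-Glo luminescence converted to μM ADP via standard curve; IC50 from nonlinear regression.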

The subject of experiment [3] is MCF-7-PR (palbociclib-resistant MCF-7) cells. In words: Cell viability in palbociclib-resistant cell line. It counts as cell-based. The conditions noted are these: for pIC50: Homo sapiens, MCF7, Table 5, palbociclib-resistant cell line maintained at about 850 nM palbociclib. The method, then: Cells were treated with test compounds at 7 to 9 concentrations within a desired concentration range (e.g. 1.1 nM-10 μM) on day 2 by series diluting the test compound stock solution (10 mM in DMSO) with culture medium. Treatment duration was 24 Hr for BT-549 cells and 144 Hr (with a medium change at 72 Hr) for MCF-7 and DU4475 cells. Cell viability was assessed by Cell Titer-Glo® as recommended by Promega (Cat. No.: G7572), or by resazurin assay (Sigma Aldrich, Cat. No.: R7017) post treatment.
Cell viability data were plotted using GraphPad Prism (GraphPad Software, Inc., San Diego, Calif.). In addition, a nonlinear regression model with a sigmoidal dose response and variable slope within GraphPad Prism was used to calculate the IC50 value of individual test compounds.
The effects of test compounds in a palbociclib-resistant cell line and a parental, non-resistant cell line were compared. The palbociclib-resistant cell line (“MCF-7-PR”) was derived from the parental, non-resistant cell line (MCF-7 breast adenocarcinoma cells) by culture of cells over a period of three months in increasing concentrations of palbociclib, starting from about 350 nM and ending at about 850 nM, the final concentration at which they were then maintained in culture. The MCF-7-PR cells were checked using a cell viability assay to confirm that they had at least 5-fold resistance to palbociclib compared to parental MCF-7 cells, as measured by an increase in the cell viability IC50 values. Assessment of cell viability following treatment with palbociclib or test compounds was performed according to the method described above for MCF-7 cells.

The next experiment concerns the target T7, FMS kinase (Homo sapiens, UniProt P07333).
T7 construct: purchased Invitrogen (Life Technologies)
In words: LanthaScreen Eu Kinase Binding Assay (ATP, fluorescent-PolyGT substrate). It counts as biochemical. In a few lines:
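Kinase (1.25 nM) preincubated 10 min with 3-fold compound dilutions, then ATP 10 μM and fluorescent PolyGT substrate 200 nM added for 1 h in the dark at room temperature. Stopped with Tb-antibody (4 nM) and EDTA 20 mM; TR-FRET at 340 nm excitation, 495/520 nm emission; IC50 from four-parameter fit.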

In experiment [4] the test system is Rb Ser780 phosphorylation in MCF-7 cells. In words: Determination of pRb levels (Ser780 phosphorylation, ELISA). The conditions noted are these: Homo sapiens. The class given is cell-based. The procedure: Hypo-phosphorylation of the retinoblastoma protein (Rb) by cyclin D:Cdk4/6 complexes results in active Rb, which is a clinically relevant biomarker associated with CDK4 or CDK6 inhibition. As a confirmatory measure of functional activity of CDK4/6, the Ser780 phosphorylation state of Rb was assessed. MCF-7 cells were plated at 2.5×10^5 to 3.0×10^6 cells/well in 6-well cell-culture plates and incubated at 37° C. for 24H in MEM medium supplemented with 10% FBS. Cells were treated for 24H with a medium containing test compound at various concentrations (e.g., 0.01, 0.1, […]) or with DMSO (≤1%) in duplicate. After incubation period, the media was removed, and cells were rinsed once with ice-cold PBS and lysed with 0.2 mL of Cell Lysis Buffer containing 1 mM PMSF and Protease Inhibitor. Protein concentration was estimated following Bradford method. The lysis and the Rb measurements were performed following the manufacturer's ELISA kit protocols and buffers (Cell Signaling Technology, Cat. No.: 13016C). Rb inhibition of test compounds was calculated as percentage of vehicle control. In some cases, a nonlinear regression model with a sigmoidal dose response and variable slope within GraphPad Prism was used to calculate the IC50 value of Rb inhibition for individual test compounds.

Where [5] appears, read: MCF7, Table 4, Rb positive, treatment 144 Hr with medium change at 72 Hr, Cell Titer-Glo or resazurin.
The mark [6] stands for this setting: MCF7, Table 5, parental, non-resistant cell line compared with MCF-7-PR.

T4 sequence (Q00534 whole entry): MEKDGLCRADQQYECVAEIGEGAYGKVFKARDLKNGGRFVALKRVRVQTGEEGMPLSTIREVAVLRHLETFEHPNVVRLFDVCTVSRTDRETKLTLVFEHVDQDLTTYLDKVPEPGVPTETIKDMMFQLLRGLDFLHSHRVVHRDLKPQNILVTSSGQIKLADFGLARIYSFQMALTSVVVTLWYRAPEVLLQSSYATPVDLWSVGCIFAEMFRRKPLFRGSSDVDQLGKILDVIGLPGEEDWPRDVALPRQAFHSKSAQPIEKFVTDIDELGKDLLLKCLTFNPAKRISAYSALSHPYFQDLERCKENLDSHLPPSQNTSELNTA
T4 sequence (P24385 whole entry partner): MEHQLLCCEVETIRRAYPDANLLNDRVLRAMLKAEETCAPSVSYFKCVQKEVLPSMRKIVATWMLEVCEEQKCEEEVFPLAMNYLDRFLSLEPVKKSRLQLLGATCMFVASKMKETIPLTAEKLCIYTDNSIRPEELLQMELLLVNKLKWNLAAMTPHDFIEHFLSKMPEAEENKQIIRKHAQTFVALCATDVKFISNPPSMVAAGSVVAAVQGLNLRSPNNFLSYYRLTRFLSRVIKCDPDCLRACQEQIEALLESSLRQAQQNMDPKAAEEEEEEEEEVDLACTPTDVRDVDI
T7 sequence (P07333 20-972): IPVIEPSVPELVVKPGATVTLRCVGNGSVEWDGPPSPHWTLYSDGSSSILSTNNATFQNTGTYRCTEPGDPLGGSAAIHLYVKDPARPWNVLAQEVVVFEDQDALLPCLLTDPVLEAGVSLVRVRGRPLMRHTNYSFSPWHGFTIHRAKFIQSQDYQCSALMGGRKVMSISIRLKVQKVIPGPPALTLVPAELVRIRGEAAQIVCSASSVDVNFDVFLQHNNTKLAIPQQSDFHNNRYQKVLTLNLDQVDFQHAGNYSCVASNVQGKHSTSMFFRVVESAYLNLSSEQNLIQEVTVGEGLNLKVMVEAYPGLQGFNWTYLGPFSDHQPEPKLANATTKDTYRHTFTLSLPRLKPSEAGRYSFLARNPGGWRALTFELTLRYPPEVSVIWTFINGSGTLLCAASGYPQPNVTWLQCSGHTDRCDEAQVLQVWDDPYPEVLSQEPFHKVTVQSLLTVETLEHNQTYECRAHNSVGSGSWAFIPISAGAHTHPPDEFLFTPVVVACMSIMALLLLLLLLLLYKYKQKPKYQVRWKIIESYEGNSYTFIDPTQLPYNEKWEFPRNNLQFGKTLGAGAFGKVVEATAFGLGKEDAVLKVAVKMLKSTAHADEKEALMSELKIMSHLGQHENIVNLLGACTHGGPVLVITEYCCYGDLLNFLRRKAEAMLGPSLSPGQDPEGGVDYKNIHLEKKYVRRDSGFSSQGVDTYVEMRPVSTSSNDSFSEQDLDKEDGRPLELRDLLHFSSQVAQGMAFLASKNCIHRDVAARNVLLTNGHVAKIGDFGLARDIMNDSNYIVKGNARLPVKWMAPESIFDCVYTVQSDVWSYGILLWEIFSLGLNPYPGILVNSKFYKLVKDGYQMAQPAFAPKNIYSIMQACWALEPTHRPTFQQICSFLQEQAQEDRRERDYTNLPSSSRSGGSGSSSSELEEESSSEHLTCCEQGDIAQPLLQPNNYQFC
T3 sequence (P11802 whole entry): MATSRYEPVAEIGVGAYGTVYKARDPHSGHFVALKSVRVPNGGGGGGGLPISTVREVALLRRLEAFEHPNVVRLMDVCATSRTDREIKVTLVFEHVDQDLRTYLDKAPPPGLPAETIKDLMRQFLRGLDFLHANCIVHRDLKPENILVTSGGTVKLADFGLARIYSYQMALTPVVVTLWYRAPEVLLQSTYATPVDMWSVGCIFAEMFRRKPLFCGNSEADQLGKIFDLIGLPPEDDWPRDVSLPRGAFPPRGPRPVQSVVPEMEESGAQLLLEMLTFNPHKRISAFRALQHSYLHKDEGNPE
T3 sequence (P24385 whole entry partner): as the sequence (P24385 whole entry partner) above
T5 sequence (P06493 whole entry): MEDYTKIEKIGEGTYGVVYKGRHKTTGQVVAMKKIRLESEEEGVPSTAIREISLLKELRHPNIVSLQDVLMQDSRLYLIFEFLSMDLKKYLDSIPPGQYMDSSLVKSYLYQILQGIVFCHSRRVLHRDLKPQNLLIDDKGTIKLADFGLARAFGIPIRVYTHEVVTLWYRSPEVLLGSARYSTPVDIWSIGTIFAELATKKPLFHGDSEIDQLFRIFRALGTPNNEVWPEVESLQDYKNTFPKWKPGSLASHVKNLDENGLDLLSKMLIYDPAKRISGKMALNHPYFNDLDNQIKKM
T5 sequence (P14635 whole entry partner): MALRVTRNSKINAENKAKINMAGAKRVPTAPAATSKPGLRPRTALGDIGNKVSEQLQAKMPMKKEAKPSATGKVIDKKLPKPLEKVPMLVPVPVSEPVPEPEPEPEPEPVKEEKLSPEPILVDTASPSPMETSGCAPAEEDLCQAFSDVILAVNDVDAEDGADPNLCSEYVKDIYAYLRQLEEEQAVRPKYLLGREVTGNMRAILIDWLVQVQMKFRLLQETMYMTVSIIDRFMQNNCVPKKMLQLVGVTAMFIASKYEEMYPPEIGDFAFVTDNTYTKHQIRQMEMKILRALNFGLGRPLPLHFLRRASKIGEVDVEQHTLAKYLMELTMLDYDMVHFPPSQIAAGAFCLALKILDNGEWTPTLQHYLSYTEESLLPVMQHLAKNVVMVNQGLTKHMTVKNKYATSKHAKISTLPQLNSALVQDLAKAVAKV
T6 sequence (O00329 whole entry): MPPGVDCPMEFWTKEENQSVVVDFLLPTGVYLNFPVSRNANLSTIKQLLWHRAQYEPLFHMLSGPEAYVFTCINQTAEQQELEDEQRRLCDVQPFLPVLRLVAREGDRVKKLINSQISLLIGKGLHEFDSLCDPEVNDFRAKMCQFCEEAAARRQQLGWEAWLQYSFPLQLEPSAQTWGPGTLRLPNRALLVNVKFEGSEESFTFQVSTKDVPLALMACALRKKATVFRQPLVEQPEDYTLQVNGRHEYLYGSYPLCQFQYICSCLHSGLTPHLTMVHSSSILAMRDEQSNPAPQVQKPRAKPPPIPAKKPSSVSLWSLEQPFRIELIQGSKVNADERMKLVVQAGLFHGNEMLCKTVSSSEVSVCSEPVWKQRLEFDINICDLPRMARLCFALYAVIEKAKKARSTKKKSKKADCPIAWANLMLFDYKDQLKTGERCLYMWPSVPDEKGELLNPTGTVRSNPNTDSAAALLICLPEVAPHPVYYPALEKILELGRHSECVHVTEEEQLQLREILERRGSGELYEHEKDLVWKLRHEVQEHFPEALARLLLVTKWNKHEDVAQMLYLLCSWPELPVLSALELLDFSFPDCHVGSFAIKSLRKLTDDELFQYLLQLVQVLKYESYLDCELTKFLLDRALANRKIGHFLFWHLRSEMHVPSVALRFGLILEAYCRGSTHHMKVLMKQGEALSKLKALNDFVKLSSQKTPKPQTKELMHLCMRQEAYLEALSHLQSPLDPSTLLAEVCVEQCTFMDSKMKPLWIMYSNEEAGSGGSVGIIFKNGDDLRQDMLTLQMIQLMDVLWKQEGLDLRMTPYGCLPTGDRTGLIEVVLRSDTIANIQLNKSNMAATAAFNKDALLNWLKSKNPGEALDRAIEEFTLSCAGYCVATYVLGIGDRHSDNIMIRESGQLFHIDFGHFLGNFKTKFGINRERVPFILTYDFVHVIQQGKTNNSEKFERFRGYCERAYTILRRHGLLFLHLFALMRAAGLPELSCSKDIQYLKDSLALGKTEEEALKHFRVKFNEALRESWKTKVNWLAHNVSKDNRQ
T6 sequence (P27986 whole entry partner): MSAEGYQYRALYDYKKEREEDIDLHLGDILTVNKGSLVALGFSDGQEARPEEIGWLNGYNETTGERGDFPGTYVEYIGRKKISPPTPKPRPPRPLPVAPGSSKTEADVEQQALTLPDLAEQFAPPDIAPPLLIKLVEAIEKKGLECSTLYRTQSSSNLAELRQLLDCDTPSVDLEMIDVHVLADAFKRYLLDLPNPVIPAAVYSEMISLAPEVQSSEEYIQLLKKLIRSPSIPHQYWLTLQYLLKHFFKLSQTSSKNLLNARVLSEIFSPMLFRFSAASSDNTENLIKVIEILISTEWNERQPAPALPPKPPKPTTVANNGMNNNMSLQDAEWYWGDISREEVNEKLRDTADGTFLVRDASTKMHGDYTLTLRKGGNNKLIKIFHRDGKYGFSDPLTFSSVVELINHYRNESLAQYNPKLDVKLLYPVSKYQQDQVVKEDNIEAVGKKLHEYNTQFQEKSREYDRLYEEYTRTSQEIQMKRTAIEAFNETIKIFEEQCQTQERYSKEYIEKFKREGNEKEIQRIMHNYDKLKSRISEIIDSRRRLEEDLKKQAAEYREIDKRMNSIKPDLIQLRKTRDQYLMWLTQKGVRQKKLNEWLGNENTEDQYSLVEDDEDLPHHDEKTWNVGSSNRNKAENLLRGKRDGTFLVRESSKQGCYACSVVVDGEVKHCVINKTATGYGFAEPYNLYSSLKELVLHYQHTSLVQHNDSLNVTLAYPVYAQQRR

With `N#Cc1cc2cnc(Nc3ccc4c(c3)CCN(CCN)C4)nc2n(C2CCCC2)c1=O` [Compound No. 66, 2-((2-(2-aminoethyl)-1,2,3,4-tetrahydroisoquinolin-6-yl)amino)-8-cyclopentyl-7-oxo-7,8-dihydropyrido[2,3-d]pyrimidine-6-carbonitrile], the pIC50 is 6.01 in experiment [1]; 6.25 in experiment [2] (setting [5]); 7.08 at CDK9 (cyclin K); 6.37 on CDK2 (cyclin A); 8.15 at CDK4; 8.22 on CDK6. For the same compound, the pIC50 at CDK1 (cyclin B) (read-out: CDK1/B IC50) was 5.76.

Regarding `N#Cc1cc2cnc(Nc3ccc(N4CCNCC4)c(C(F)(F)F)c3)nc2n(C2CCCC2)c1=O` [Compound No. 33, 8-cyclopentyl-7-oxo-2-((4-(piperazin-1-yl)-3-(trifluoromethyl)phenyl)amino)-7,8-dihydropyrido[2,3-d]pyrimidine-6-carbonitrile], the pIC50 was 6.81 in experiment [2] (setting [5]); 6.69 in experiment [2] (setting [6]); 5.78 against PI3Kδ kinase; below 6.70 on CDK4; below 6.70 on CDK6; 7.19 in experiment [3]. The pIC50 at FMS kinase was 8.38.

For `N#Cc1cc2cnc(Nc3cnn(C4CCNCC4)c3)nc2n(C2CCCC2)c1=O` [Compound No. 50, 8-cyclopentyl-7-oxo-2-((1-(piperidin-4-yl)-1H-pyrazol-4-yl)amino)-7,8-dihydropyrido [2,3-d] pyrimidine-6-carbonitrile], the pIC50 in experiment [1] was 5.61; in [2] (setting [5]), 6.40; in [2] (setting [6]) it was 6.18; in experiment [4] (MCF7, 24H treatment, read-out: Inhibition of Rb phosphorylation IC50), 6.30; at CDK4, 7.64; on CDK6, 7.77. Also, the pIC50 in [3] was 5.98; on FMS kinase it was 9.00.

For the compound `CC(=O)c1c(C)c2cnc(Nc3ccc(N4CCNCC4)cn3)nc2n(C2CCCC2)c1=O` [palbociclib, reference compound], the “resistance to palbociclib compared to parental MCF-7 cells (increase in cell viability IC50)” value in experiment [3] (MCF-7-PR versus parental MCF-7) is recorded as “at least 5 fold”.

In general, inhibition refers to the drop in the measured response relative to a control, in per cent. In the case of `N#Cc1cc2cnc(Nc3ccc(N4CCNCC4)cc3)nc2n(C2CCCc3ccccc32)c1=O` (stereo not drawn) [Compound No. 39, 7-oxo-2-((4-(piperazin-1-yl)phenyl)amino)-8-(1,2,3,4-tetrahydronaphthalen-1-yl)-7,8-dihydropyrido[2,3-d]pyrimidine-6-carbonitrile], the pIC50 in [2] (setting [5]) is 5.64; on PI3Kδ kinase it was 6.04; at CDK4, 8.70; on CDK6 it was 8.82; at FMS kinase it was 8.15. Also, the inhibition at 0.01 µM in [4] (MCF7, 0.01 μM, 24H treatment, percentage of vehicle control) was -25%. Also, the inhibition at 0.1 µM in experiment [4] (MCF7, 0.1 μM, 24H treatment, percentage of vehicle control) came out at 40%. Also, in experiment [4] (MCF7, 1 μM, 24H treatment, percentage of vehicle control), the inhibition at 1 µM worked out at 52%.

Take `CS(=O)(=O)N1CCC(Nc2ncc3cc(C#N)c(=O)n([C@H]4C[C@@H]5CC[C@H]4C5)c3n2)CC1` (racemic) [Compound No. 353, 8-((1S,2S,4R)-bicyclo[2.2.1]heptan-2-yl)-2-(1-(methylsulfonyl)piperidin-4-ylamino)-7-oxo-7,8-dihydropyrido[2,3-d]pyrimidine-6-carbonitrile]: the pIC50 in [1] was 6.05; in experiment [2] (setting [5]), 6.29; in [2] (setting [6]) it was 6.46; against CDK2 (cyclin A), 8.00; on CDK4, 7.82; on CDK6, 7.89. The values for the pIC50 (in experiment [3]; against CDK1 (cyclin B); on FMS kinase) were 6.11, below 5.59 and 7.16, respectively.

Regarding `N#Cc1cc2cnc(Nc3ccc(N4CCNCC4)c(Cl)c3)nc2n(C2CCCC2)c1=O` [Compound No. 30, 2-((3-chloro-4-(piperazin-1-yl)phenyl)amino)-8-cyclopentyl-7-oxo-7,8-dihydropyrido[2,3-d]pyrimidine-6-carbonitrile], the pIC50 in experiment [2] (setting [5]) is 6.96; in [2] (setting [6]), 6.94; on CDK4, 8.35; on CDK6, 8.02; in experiment [3] it was 7.07; at FMS kinase, 8.22.

`N#Cc1cc2cnc(NC3CCN(S(=O)(=O)CC(F)(F)F)CC3)nc2n(C2CCCC2)c1=O` [Compound No. 358, 8-cyclopentyl-7-oxo-2-((1-((2,2,2-trifluoroethyl)sulfonyl)piperidin-4-yl)amino)-7,8-dihydropyrido[2,3-d]pyrimidine-6-carbonitrile]: the pIC50 in experiment [1] is 4.89; in experiment [2] (setting [5]), 5.55; on PI3Kδ kinase, below 4.36; against CDK2 (cyclin A), 6.92; on CDK4, 8.36; at CDK6 it was 8.18. Further, the values for the pIC50 on CDK1 (cyclin B) and at FMS kinase were 5.86 and 5.95, respectively.
